System: patients suffering from chronic nonbacterial prostatitis
Assay: Double-blind, placebo-controlled study of a substance P antagonist in patients suffering from chronic nonbacterial prostatitis
Format: in vivo, human
Conditions: 30 mg/day; assessed by immunological profile, rating scales, checklists and diminishment of the attendant disease state
Protocol: Double-Blind, Placebo-Controlled Study to Determine the Effect of a Substance P Antagonist on Patients Suffering from Chronic Nonbacterial Prostatitis Approximately twenty patients diagnosed as suffering from chronic nonbacterial prostatitis receive either the substance P receptor antagonist 2-(R)-(1-(R)-(3,5-bis(trifluoromethyl)-phenyl)-ethoxy)-3-(S)-(4-fluoro-phenyl)-4-(3-(5-oxo-1H,4H-1,2,4-triazolo)methyl-morpholine (30 mg/day) or a placebo. Each subject participates in 6 randomized test periods; in 3 of the test periods, each is given the substance P antagonist and in the other 3 test periods, is given a placebo. Efficacy of the test compound is assessed by reference to immunological profile, rating scales, checklists and diminishment of the attendant disease state.

C[C@@H](O[C@H]1OCCN(Cc2n[nH]c(=O)[nH]2)[C@H]1c1ccc(F)cc1)c1cc(C(F)(F)F)cc(C(F)(F)F)c1 [2-(R)-(1-(R)-(3,5-bis(trifluoromethyl)-phenyl)-ethoxy)-3-(S)-(4-fluoro-phenyl)-4-(3-(5-oxo-1H,4H-1,2,4-triazolo)methyl-morpholine]
effect with respect to placebo in the treatment or prevention of chronic nonbacterial prostatitis: positive effect with respect to placebo

— US6054455A, “Method for treating or preventing chronic nonbacterial prostatitis and prostatodynia” (Merck & Co., Inc., priority 1999, dated 2000)
